The values below come from patent US8247595B2, “Organic sulfur compound and its use for controlling harmful arthropod” (Sumitomo Chemical Company, Limited, priority 2007, dated 2012).

Where only a bound is given, the exact number is not on record here.

Common to all, as to type: in vivo
In one test the test system is Musca domestica. The test is described as follows: Test Example 2: treated filter paper with sucrose bait, death rate of Musca domestica. The settings on record: 500 ppm test solution, 0.7 ml on filter paper, 10 female imagoes, after 24 hours. The procedure:
Preparations of the present compounds (1), (2), (3), (4), (5), (6), (7), (8), (9), (10), (13), (18), (23), (24), (25), (26), (27), (28), (29), (30), (31), (32), (33), (34), (35), (38) and (39) obtained according to Formulation Example 44 were diluted so that the active ingredient concentration was 500 ppm to obtain test solutions.
A filter paper having a diameter of 5.5 cm was spread on the bottom of a polyethylene cup having a diameter of 5.5 cm and 0.7 ml of the test solution was added dropwise onto the filter paper. As a bait 30 mg of sucrose was uniformly placed on the filter paper. Into the polyethylene cup, 10 female imagoes of Musca domestica were released and the cup was sealed with a lid. After 24 hours, the number of surviving Musca domestica was examined and the death rate of the pest was calculated.
As a result, in treatments with the present compounds (1), (2), (3), (4), (5), (6), (7), (8), (9), (10), (13), (18), (23), (24), (25), (26), (27), (28), (29), (30), (31), (32), (33), (34), (35), (38) and (39), the death rate of the pest was 70% or more.

Test [1] deals with Haemaphysalis longicornis. The experiment in a line: Test Example 5: treated filter paper pouch, death rate of ticks. The settings on record: 48 h, filter paper treated with 100 mg/m^2, non-blood-sucking nymphal ticks, 10 ticks/group, after 2 days, read-out: death rate of the tick. As to the method: Five milligrams of any one of the present compounds (19), (23), (24), (27), (28), (29), (32), (33), (35), (38) and (39) was dissolved in 10 mL of acetone. One milliliter of the acetone solution was uniformly applied on one side of a filter paper (TOYO No. 2; 5×10 cm), so that the filter paper was treated with 100 mg/m^2 of the present compound. After drying, the filter paper was folded in two and its edges were clipped to make a pouch. Non-blood-sucking nymphal ticks (Haemaphysalis longicornis, 10 ticks/group) were put into the pouch, and the pouch was sealed with clips. After 2 days, the number of surviving ticks was examined and the death rate was calculated.
As a result, in treatments with the present compounds (19), (23), (24), (27), (28), (29), (32), (33), (35), (38) and (39), the death rate of the tick was 90%.

The test system of the next test is Blattalla germanica. The experiment in a line: Test Example 3: treated filter paper with sucrose bait, death rate of Blattalla germanica. The settings on record: 144 h; 500 ppm test solution, 0.7 ml on filter paper; 2 male imagoes; after 6 days. As to the method: Preparations of the present compounds (3), (4), (5), (6), (7), (9), (10), (13), (23), (24), (25), (26), (27), (28), (29), (30), (31), (32), (33), (34), (35), (38) and (39) obtained according to Formulation Example 44 were diluted so that the active ingredient concentration was 500 ppm to obtain test solutions.
A filter paper having a diameter of 5.5 cm was spread on the bottom of a polyethylene cup having a diameter of 5.5 cm and 0.7 ml of the test solution was added dropwise onto the filter paper. As a bait 30 mg of sucrose was uniformly placed on the filter paper. Into the polyethylene cup, 2 male imagoes of Blattalla germanica were released and the cup was sealed with a lid. After 6 days, the number of surviving Blattalla germanica was examined and the death rate of the pest was calculated.
As a result, in treatments with the present compounds (3), (4), (5), (6), (7), (9), (10), (13), (23), (24), (25), (26), (27), (28), (29), (30), (31), (32), (33), (34), (35), (38) and (39), the death rate of the pest was 100%.

The next test concerns Culex pipiens pallens. The experiment in a line: Test Example 4: larvae released into treated water, death rate of Culex pipiens pallens. The settings on record: 24 h, active ingredient concentration 3.5 ppm in water, 20 last-instar larvae, after one day. The procedure:
Preparations of the present compounds (1), (2), (3), (4), (5), (6), (7), (13), (14), (15), (16), (18), (22), (23), (24), (25), (26), (27), (28), (29), (30), (31), (32), (33), (34), (35), (36), (38) and (39) obtained according to Formulation Example 44 were diluted so that the active ingredient concentration was 500 ppm to obtain test solutions.
To 100 mL of ion-exchanged water, 0.7 ml of the test solution was added (active ingredient concentration: 3.5 ppm). Into the solution, 20 last-instar larvae of Culex pipiens pallens were released. After one day, the number of surviving Culex pipiens pallens was examined and the death rate of the pest was calculated.
As a result, in treatments with the present compounds (1), (2), (3), (4), (5), (6), (7), (13), (14), (15), (16), (18), (22), (23), (24), (25), (26), (27), (28), (29), (30), (31), (32), (33), (34), (35), (36), (38) and (39), the death rate of the pest was 90% or more.

Regarding `C#CCC(C)(C)CCC(C#N)S(=O)(=O)CCC(F)(F)F` (stereo not drawn) [present compound (33), 5,5-dimethyl-2-(3,3,3-trifluoropropylsulfonyl)-7-octynenitrile], the pest or weed control at 500 ppm in the test on Musca domestica is not below 70%; in the test on Blattalla germanica it was 100%. For the same compound, in test [1], the pest or weed control at 100 mg/m2 is 90%. Further, the pest or weed control at 3.5 ppm with Culex pipiens pallens was not below 90%.

In the case of `C#CCC(CC)CCC(C#N)S(=O)(=O)CCC(F)(F)F` (stereo not drawn) [present compound (29), 5-ethyl-2-(3,3,3-trifluoropropylsulfonyl)-7-octynenitrile], the values for the pest or weed control at 500 ppm with Musca domestica and in the test with Blattalla germanica were not below 70% and 100%, respectively. Moreover, in test [1], the pest or weed control at 100 mg/m2 is 90%. In addition, the pest or weed control at 3.5 ppm in the test on Culex pipiens pallens was not below 90%.

Turning to `C#CC(C)CCCC(C#N)S(=O)(=O)CCC(F)(F)F` (stereo not drawn) [present compound (28), 6-methyl-2-(3,3,3-trifluoropropylsulfonyl)-7-octynenitrile], the pest or weed control at 500 ppm in the test with Musca domestica is not below 70%; in the test with Blattalla germanica, 100%. The pest or weed control at 100 mg/m2 in test [1] was found to be 90%. The pest or weed control at 3.5 ppm in the test on Culex pipiens pallens was not below 90%.

On to `C#CCC(CC)CCC(Cl)(C(N)=O)S(=O)(=O)CCC(F)(F)F` (stereo not drawn) [present compound (32), 2-chloro-5-ethyl-2-(3,3,3-trifluoropropylsulfonyl)-7-octynamide], for which the pest or weed control at 500 ppm in the test with Musca domestica is not below 70%; with Blattalla germanica, 100%. In addition, the pest or weed control at 100 mg/m2 in test [1] is 90%. Also, the pest or weed control at 3.5 ppm in the test on Culex pipiens pallens is not below 90%.

With `C#CCC(C)CCC(C#N)S(=O)(=O)CCC(F)(F)F` (stereo not drawn) [present compound (27), 5-methyl-2-(3,3,3-trifluoropropylsulfonyl)-7-octynenitrile], the pest or weed control at 500 ppm in the test on Musca domestica is not below 70%; in the test with Blattalla germanica, 100%. Besides, in test [1], the pest or weed control at 100 mg/m2 worked out at 90%. Further, in the test with Culex pipiens pallens, the pest or weed control at 3.5 ppm is not below 90%.

Consider `C#CCOCCC(C)(C#N)S(=O)(=O)CCC(F)(F)F` (stereo not drawn) [present compound (39), 2-methyl-4-(2-propynyloxy)-2-(3,3,3-trifluoropropylsulfonyl)butanenitrile], for which the pest or weed control at 500 ppm in the test on Musca domestica is not below 70%; in the test with Blattalla germanica, 100%. In test [1], the pest or weed control at 100 mg/m2 is 90%. For the same compound, the pest or weed control at 3.5 ppm in the test with Culex pipiens pallens was not below 90%.

`C/C(=C\CC(C#N)S(=O)(=O)CCC(F)(F)F)C(F)(F)F` (stereo not drawn) [present compound (35), 6,6,6-trifluoro-5-methyl-2-(3,3,3-trifluoropropylsulfonyl)-4-hexenenitrile]: the pest or weed control at 500 ppm is not below 70% in the test on Musca domestica and 100% in the test on Blattalla germanica. Also, the pest or weed control at 100 mg/m2 in test [1] came to 90%. The pest or weed control at 3.5 ppm in the test with Culex pipiens pallens is not below 90%.

On to `C#CCOCCC(C#N)S(=O)(=O)CCC(F)(F)F` (stereo not drawn) [present compound (38), 4-(2-propyonyloxy)-2-(3,3,3-trifluoropropylsulfonyl)butanenitrile], for which the pest or weed control at 500 ppm was not below 70% with Musca domestica and 100% with Blattalla germanica. Moreover, in test [1], the pest or weed control at 100 mg/m2 was found to be 90%. Also, the pest or weed control at 3.5 ppm in the test on Culex pipiens pallens is not below 90%.

Regarding `C#CCCCCCC(C#N)S(=O)(=O)CCC(F)(F)F` (stereo not drawn) [present compound (24), 2-(3,3,3-trifluoropropylsulfonyl)-8-nonynenitrile], the results for the pest or weed control at 500 ppm in the test on Musca domestica and in the test on Blattalla germanica were not below 70% and 100%, respectively. Besides, the pest or weed control at 100 mg/m2 in test [1] worked out at 90%. Further, the pest or weed control at 3.5 ppm with Culex pipiens pallens was not below 90%.
